The source of these data is patent US20020183256A1, “Cytostatic-integrin conjugates having specifically cleavable linking units” (priority 2000, published 2002).

The IC50 is the concentration that gives 50% inhibition.

≈ marks a conversion by molar mass, not a printed value. Where two headings read alike, the source gives them in different places. *1 amine or outer side, *2 acyl side, *3 side chain or, on linkers, in order; H or OH if unused. Where a SMILES comes first, the peptide text is derived from it. [ ]: non-standard residue; d: D form. The star is where a group is joined. Camptothecin(20R,20-O) = CC[C@]1(O*)C(=O)OCc2c1cc1n(c2=O)Cc2cc3ccccc3nc2-1; X1 = CCCNC(=O)Nc1cccc(S(=O)(=O)Nc2cccc(C(CC(=O)O)N*)c2)c1; NH(1,4-C6H4)NHCS = S=C(Nc1ccc(N[*:1])cc1)[*:2]; CO = O=C([*:1])[*:2]; GABA = NCCCC(=O)O

One data set concerns the target T1, αvβ3 receptor (Homo sapiens, UniProt P05106+P06756).
T1 construct: αvβ3 from human A375 cells was purified; endogenous in cells; host or cells: human A375 cells (receptor purified from the cells, analogous to Wong et al. 1996)
Nature of the data set: αvβ3 binding test (echistatin displacement, WGA SPA beads). The note with it: αvβ3 from human A375 cells; for IC50: read-out: IC50 values of the binding to the αvβ3 receptor. On the procedure: αvβ3 from human A375 cells was purified analogously to a procedure which was described by Wong et al. (Molecular Pharmacology, 50, 529-537 (1996)). In each case, 10 μl of αvβ3 (5 ng) in TBS pH 7.6, 2 mM CaCl2, 1 mM MgCl2, 1% n-octylglucopyranoside (Sigma); 10 μl of test substance in TBS pH 7.6, 0.1% DMSO and 45 μl of TBS pH 7.6, 2 mM CaCl2, 1 mM MgCl2, 1 mM MnCl2 were incubated at room temperature for 1 h. In each case, 25 μl of WGA SPA beads (Amersham, 4 mg/ml) and 10 μl of echistatin (0.1 μCi, Amersham, chloramine-T labelled) were then added. After 16 hours at room temperature, the samples were measured in a scintillation measuring apparatus (Wallac 1450).

A further data set relates to HT29. Nature of the data set: Growth inhibition test (MTT), cytotoxic action on tumour cell lines. The format is cell-based, human. An outline of the steps: (§1)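 Cells seeded at 50,000/ml (B16F10 20,000/ml) in RPMI + 10% FCS, grown 1 day at 37 °C, then compound added in DMSO. Growth read on day 6 by MTT (5 h, 37 °C), isopropanol solubilisation, extinction at 595 nm; IC50 reported per line.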

In another data set the test system is SW 480. The description is as above. The format is cell-based, human. The procedure, abridged: as §1
A further data set relates to B16F10. The data set is described as above. The format is cell-based, mouse. The procedure, abridged:
as §1

For a further data set, the system named is hemopoietic stem cells. Nature of the data set: CSF-induced proliferation of hemopoietic stem cells (colony formation). In kind it is cell-based, mice. The note with it: murine bone marrow cells, GM-CSF, 7 days. On the procedure: Bone marrow cells are flushed out of the femur of mice. 10^5 cells are incubated in McCoy 5A medium (0.3% agar) together with recombinant murine GM-CSF (Genzyme; parent cell colony formation) and the substances (10^−4 to 100 μg/ml) at 37° C. and 7% CO2. 7 days later, the colonies […] and clusters (17-50 cells) are counted.

A further data set has as its target T2, MMP-2 (Homo sapiens, UniProt P08253).
T2 construct: purchased Calbiochem
T2 sequence (P08253 110-660): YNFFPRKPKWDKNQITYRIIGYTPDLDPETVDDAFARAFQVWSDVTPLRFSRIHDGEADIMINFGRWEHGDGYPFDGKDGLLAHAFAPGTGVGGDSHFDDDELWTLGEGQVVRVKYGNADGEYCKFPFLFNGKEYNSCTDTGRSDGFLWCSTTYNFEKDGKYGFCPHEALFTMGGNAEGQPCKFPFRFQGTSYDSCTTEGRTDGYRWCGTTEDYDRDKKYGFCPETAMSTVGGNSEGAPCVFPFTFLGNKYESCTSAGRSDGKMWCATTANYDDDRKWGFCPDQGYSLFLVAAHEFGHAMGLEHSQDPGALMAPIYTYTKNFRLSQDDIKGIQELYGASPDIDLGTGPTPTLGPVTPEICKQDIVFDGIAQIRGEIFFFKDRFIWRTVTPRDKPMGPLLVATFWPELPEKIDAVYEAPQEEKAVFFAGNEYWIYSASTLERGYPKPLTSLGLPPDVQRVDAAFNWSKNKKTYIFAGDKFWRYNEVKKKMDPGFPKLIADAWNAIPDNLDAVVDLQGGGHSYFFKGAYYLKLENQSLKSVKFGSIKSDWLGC
In words: Cleavage of conjugates by MMP-2 in buffer (HPLC). In kind it is biochemical. The note with it: after 6 h incubation with MMP-2; buffer pH 7.5. The protocol:
2.5 μl MMP-2 (Calbiochem) with a specific activity of 60 μU/μl are incubated with 10 nM of the conjugates exemplified in the example series 1-25 in 1 ml of a medium consisting of 50 mM Tris-HCl pH 7.5, 0.2 M NaCl, 10 mM CaCL2*2H2O and 0.05% Brij 35. The enzyme mediated cleavage of the conjugates is detected by HPLC analysis using an RP18 (5 μM) column with 70% HClO4/water (0.4% v/v) as eluent A and acentonitrile as eluent B (UV detection at […]). The efficiency of the cleavage is assessed by comparing the peak areas of the intact conjugate (starting material) and the cleavage product (tripeptide conjugate of camptothecin) after 6 h and 24 h incubation (cf. Table 5).

Data set [1] in a line: In-vivo inhibition of tumour growth using a nude mouse model. More on the design: species or system athymic nude mice (NMRI nu/nu strain). The note with it: NMRI nu/nu, mouse, in vivo; intravenously or intraperitoneally day 1-3 and day 15-17; nude mice; read-out: MTD (dose marked MTD). An excerpt:
(§2) In all in-vivo experiments for investigating the inhibition of tumour growth, athymic nude mice (NMRI nu/nu strain) were used. The tumour was developed by serial passage in nude mice. The human origin of the tumour was confirmed by isoenzymatic and immunohistochemical methods.
(§3) The tumour was implanted subcutaneously in both flanks of nu/nu nude mice 6 to 8 weeks old. The treatment was started, depending on the doubling time, as soon as the tumours had reached a diameter of 5-7 mm. The mice were assigned to the treatment group or the control group (5 mice per group having 8-10 assessable tumours) by randomization. The individual tumours of the control group all grew progressively.
(§4) The size of the tumours was measured in two dimensions by means of a slide gauge. The tumour volume, which correlated well with the cell count, was then used for all assessments. The volume was calculated according to the formula “length×breadth×breadth/2” ([a×b^2]/2, a and b represent two diameters arranged at right angles).
(§5) The values of the relative tumour volume (RTV) were calculated for each individual tumour by dividing the tumour size on day X with the tumour size on day 0 (at the time of randomization). The average values of the RTV were then used for the further assessment.
(§6) The inhibition of the increase of the tumour volume (tumour volume of the test group/control group, T/C, in per cent) was the final measured value.
(§7) The compounds can be administered with a daily or an intermittent therapy schedule through a couple of days either by intraperitoneal, intravenious, oral or subcutaneous route.
(§8) The compounds are dissolved in PEG400/water 2:1 and administered intravenously or intraperitoneally from day 1-3 and day 15-17.

The test system of data set [2] is melanoma xenograft model (MEXF 989). Described as above. More on the design: species or system athymic nude mice (NMRI nu/nu strain). As to conditions: for optimal T/C in % / lethality: intravenously or intraperitoneally day 1-3 and day 15-17; for optimal T/C in %: MEXF 989; for lethality: MEXF 989 nude mice; for inhibition of the tumor growth (in words): subcutaneously growing melanoma xenograft MEXF 989.
Text: as §2, §3, §4, §5, §6, §7, §8

T1 sequence (P06756 31-889 limits assumed): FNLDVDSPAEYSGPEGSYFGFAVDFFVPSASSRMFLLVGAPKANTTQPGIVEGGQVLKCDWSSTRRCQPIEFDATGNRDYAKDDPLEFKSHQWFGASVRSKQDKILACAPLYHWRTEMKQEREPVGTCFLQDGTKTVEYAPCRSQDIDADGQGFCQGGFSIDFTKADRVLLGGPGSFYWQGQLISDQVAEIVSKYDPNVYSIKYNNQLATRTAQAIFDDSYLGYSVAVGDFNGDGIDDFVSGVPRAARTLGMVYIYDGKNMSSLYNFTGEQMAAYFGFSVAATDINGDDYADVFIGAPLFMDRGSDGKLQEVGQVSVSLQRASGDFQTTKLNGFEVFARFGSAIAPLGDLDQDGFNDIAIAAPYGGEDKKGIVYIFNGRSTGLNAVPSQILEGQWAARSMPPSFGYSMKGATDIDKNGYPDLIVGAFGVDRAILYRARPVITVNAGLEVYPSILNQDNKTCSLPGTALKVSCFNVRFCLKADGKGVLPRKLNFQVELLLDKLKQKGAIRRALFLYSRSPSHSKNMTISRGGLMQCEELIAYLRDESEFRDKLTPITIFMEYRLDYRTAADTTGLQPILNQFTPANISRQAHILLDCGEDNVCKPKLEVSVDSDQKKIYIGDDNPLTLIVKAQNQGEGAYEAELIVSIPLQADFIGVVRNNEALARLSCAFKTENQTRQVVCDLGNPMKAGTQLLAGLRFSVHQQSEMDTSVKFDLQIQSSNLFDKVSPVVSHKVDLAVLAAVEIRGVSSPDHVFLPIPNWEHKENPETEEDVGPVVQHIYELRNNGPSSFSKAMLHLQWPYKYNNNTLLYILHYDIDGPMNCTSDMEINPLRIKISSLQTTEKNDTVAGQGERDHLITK
T1 sequence (P06756 891-1048 partner limits assumed): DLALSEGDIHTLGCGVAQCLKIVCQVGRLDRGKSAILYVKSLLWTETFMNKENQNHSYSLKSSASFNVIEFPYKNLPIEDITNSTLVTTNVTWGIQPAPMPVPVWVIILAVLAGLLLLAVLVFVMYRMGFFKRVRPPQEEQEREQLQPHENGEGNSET
T1 sequence (P05106 27-788): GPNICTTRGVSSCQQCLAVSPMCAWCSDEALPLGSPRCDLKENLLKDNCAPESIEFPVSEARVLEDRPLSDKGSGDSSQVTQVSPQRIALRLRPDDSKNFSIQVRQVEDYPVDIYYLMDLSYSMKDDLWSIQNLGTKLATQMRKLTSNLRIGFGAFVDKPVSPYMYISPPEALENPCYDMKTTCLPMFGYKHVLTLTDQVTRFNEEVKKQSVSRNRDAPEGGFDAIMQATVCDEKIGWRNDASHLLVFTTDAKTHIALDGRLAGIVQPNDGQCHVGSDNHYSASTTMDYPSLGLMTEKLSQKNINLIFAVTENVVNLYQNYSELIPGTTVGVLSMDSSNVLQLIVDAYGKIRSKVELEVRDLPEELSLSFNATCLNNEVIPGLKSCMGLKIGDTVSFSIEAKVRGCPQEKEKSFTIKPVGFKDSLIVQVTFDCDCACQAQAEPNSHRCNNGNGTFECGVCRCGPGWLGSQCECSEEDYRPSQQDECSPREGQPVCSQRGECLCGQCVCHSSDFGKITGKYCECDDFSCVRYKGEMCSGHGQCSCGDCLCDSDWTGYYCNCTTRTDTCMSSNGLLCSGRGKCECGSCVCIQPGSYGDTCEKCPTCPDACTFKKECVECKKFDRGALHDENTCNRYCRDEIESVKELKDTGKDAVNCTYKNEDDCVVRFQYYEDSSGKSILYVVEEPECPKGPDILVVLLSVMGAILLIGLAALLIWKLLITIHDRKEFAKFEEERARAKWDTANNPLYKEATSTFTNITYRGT

Take `CCCNC(=O)Nc1cccc(S(=O)(=O)Nc2cccc(C(CC(=O)O)NC(=O)Nc3ccc(NC(=S)N4CCC[C@@H]4C(=O)N[C@@H](CC(C)C)C(=O)NCC(=O)N[C@H](CC(C)C)C(=O)N[C@H](Cc4c[nH]cn4)C(=O)N[C@@H](C(=O)O[C@@]4(CC)C(=O)OCc5c4cc4n(c5=O)Cc5cc6ccccc6nc5-4)C(C)C)cc3)c2)c1` (stereo partly shown) [Example 1]: the IC50 on αvβ3 receptor is 40 nM; in the data set on HT29 (human, 6 days) it was 50 nM; in the data set on SW 480 (human, 6 days) it was 70 nM; with B16F10 (mouse, 6 days), 250 nM. In the data set on hemopoietic stem cells, the “IC50 values of the inhibition of colony formation of hemopoietic stem cells” value came to 30 ng/mL. For the same compound, the “MMP-2 mediated cleavage Peak area product/educt x100” value at MMP-2 turned out to be 17.

Turning to `CCCNC(=O)Nc1cccc(S(=O)(=O)Nc2cccc(C(CC(=O)O)NC(=O)Nc3ccc(NC(=S)N4CCC[C@@H]4C(=O)N[C@@H](CC(C)C)C(=O)NCC(=O)N[C@H](CC(C)C)C(=O)N[C@H](CC(N)=O)C(=O)N[C@@H](C(=O)O[C@@]4(CC)C(=O)OCc5c4cc4n(c5=O)Cc5cc6ccccc6nc5-4)C(C)C)cc3)c2)c1` (single isomer, unassigned) [Example 10], the IC50 on αvβ3 receptor worked out at 20 nM; with HT29 (human, 6 days) it was 100 nM; in the data set with SW 480 (human, 6 days) it was 70 nM; in the data set with B16F10 (mouse, 6 days), 600 nM. In addition, the MTD in data set [1] came to 6 mg/kg/day. For the same compound, the “optimal T/C in %” value in data set [2] (6 mg/kg/day) came out at 11.4%. Moreover, the lethality in data set [2] (6 mg/kg/day) is reported as 0/5 (MTD). The “inhibition of the tumor growth (in words)” value (“inhibition … (in words)” below) in data set [2] is “effected inhibitions of the tumor growth”. Further, the “MMP-2 mediated cleavage Peak area product/educt x100” value on MMP-2 was 16.

Regarding `CCCNC(=O)Nc1cccc(S(=O)(=O)Nc2cccc(C(CC(=O)O)NC(=O)Nc3ccc(NC(=S)NCCCC(=O)N4CCC[C@@H]4C(=O)N[C@@H](CC(C)C)C(=O)NCC(=O)N[C@H](CC(C)C)C(=O)N[C@H](Cc4c[nH]cn4)C(=O)N[C@@H](C(=O)O[C@@]4(CC)C(=O)OCc5c4cc4n(c5=O)Cc5cc6ccccc6nc5-4)C(C)C)cc3)c2)c1` (stereo partly drawn) [Example 16] ({X1-CO}-[NH(1,4-C6H4)NHCS][GABA][dP]LG[dL][dH][dV]-{Camptothecin(20R,20-O)}), on αvβ3 receptor, the “IC50 values of the binding to the αvβ3 receptor” value is reported as “nix”. Besides, the IC50 with HT29 (HT29, MTT after day 6, read-out: IC50 values of the cytotoxic action on tumour cell lines, HT29) was 25 nM; in the data set with SW 480 (SW480, MTT after day 6, read-out: IC50 values of the cytotoxic action on tumour cell lines, SW480), 40 nM; in the data set on B16F10 (B16F10, MTT after day 6, read-out: IC50 values of the cytotoxic action on tumour cell lines, B16F10) it was 50 nM. Further, in the data set with hemopoietic stem cells, the “IC50 values of the inhibition of colony formation of hemopoietic stem cells” value is 15 ng/mL.

`CC[C@@]1(O)C(=O)OCc2c1cc1n(c2=O)Cc2cc3ccccc3nc2-1` [Camptothecin, 20(S)-Camptothecin, reference compound]: the IC50 with hemopoietic stem cells (Mus musculus, Bone marrow cell, 168 h, read-out: IC50 values of the inhibition of colony formation of hemopoietic stem cells) was determined as 0.25 ng/mL (≈ 0.718 nM).

`CCCNC(=O)Nc1cccc(S(=O)(=O)Nc2cccc(C(CC(=O)O)NC(=O)Nc3ccc(NC(=S)N4CCC[C@@H]4C(=O)N[C@@H](CC(C)C)C(=O)NCC(=O)N[C@H](CSC)C(=O)N[C@H](Cc4c[nH]cn4)C(=O)N[C@@H](C(=O)O[C@@]4(CC)C(=O)OCc5c4cc4n(c5=O)Cc5cc6ccccc6nc5-4)C(C)C)cc3)c2)c1` (single isomer, unassigned) [Example 25]: the IC50 in the data set on HT29 (human, 6 days) worked out at 80 nM; in the data set with SW 480 (human, 6 days), 60 nM; in the data set on B16F10 (mouse, 6 days), 250 nM. Further, the MTD in data set [1] was 6 mg/kg/day. For the same compound, the “optimal T/C in %” value in data set [2] (6 mg/kg/day) turned out to be 19.6%. Moreover, the lethality in data set [2] (6 mg/kg/day) was 1/5 (MTD). In addition, in data set [2], the “inhibition … (in words)” value was “effected inhibitions of the tumor growth”. The “MMP-2 mediated cleavage Peak area product/educt x100” value on MMP-2 was found to be 9.

`CCCNC(=O)Nc1cccc(S(=O)(=O)Nc2cccc(C(CC(=O)O)NC(=O)Nc3ccc(NC(=S)N4CCC[C@@H]4C(=O)N[C@@H](CC(C)C)C(=O)NCC(=O)N[C@H](CC(C)C)C(=O)N[C@H](Cc4c[nH]cn4)C(=O)N[C@@H](C(=O)O[C@@]4(CC)C(=O)OCc5c4cc4n(c5=O)Cc5cc6ccccc6nc5-4)C(C)C)cc3)c2)c1` (single isomer, unassigned) [Example 2]: the IC50 at αvβ3 receptor was determined as 25 nM; with HT29 (human, 6 days), 180 nM; in the data set on SW 480 (human, 6 days), 100 nM; in the data set with B16F10 (mouse, 6 days), 500 nM. Also, the MTD in data set [1] amounted to 12 mg/kg/day. Also, the “optimal T/C in %” value worked out at 17.7% in data set [2] (6 mg/kg/day) and 7.4% in data set [2] (12 mg/kg/day). Further, the lethality in data set [2] (6 mg/kg/day) is recorded as 0/5; in data set [2] (12 mg/kg/day), 1/5 (MTD). The “inhibition … (in words)” value in data set [2] is “effected inhibitions of the tumor growth”. Also, at MMP-2, the “MMP-2 mediated cleavage Peak area product/educt x100” value came to 18.
